# From US20220331301A1, “CYSTIC FIBROSIS TRANSMEMBRANE CONDUCTANCE REGULATOR MODULATORS FOR TREATING AUTOSOMAL RESESSIVE POLYCYSTIC KIDNEY DISEASE” (The Johns Hopkins University, priority 2021, published 2022)
# Tested on: Pkhd1^del4/del4 cholangiocytes
# Test: Cyst growth of cholangiocytes on matrigel (3D culture)
# Type: cell-based, mice
# Conditions: for cyst growth / cyst area: 10 μM continuous, cysts induced with Forskolin (10 μM)
# Protocol: (§1) Note that the cysts treated with forskolin (for) grew larger. […] Note that the cysts treated with forskolin (for) grew larger. […] FIG. 3C for 1 wk. […] Cysts were induced with Forskolin (10 μM) for 24 hours prior to study. Columns represent means±standard error (SEM). **P<0.01 ****P<0.0001 (for all graphs). Statistical analysis was performed using an unpaired two-tailed Student's t-test;
# as §1, with “4C” for “3C”
# But cysts do develop from the Pkhd1del4/del4 cholangiocytes. Cyst growth is accelerated by forskolin (for). […] Yanda et al., 2018. The dosage of VX-809 injected was lower than the human pediatric dose, which is 500 mg of Lumacaftor per day; the adult dose is 800 mg/day.
# (Methods and cells provided by the Yale O'Brian Center) To create the cholangiocyte cultures PKhd1del/4/del4, Garcia-Gonzalez et al., 2007, animals were crossed with mice transgenic for the Sv40 large T Antigen (strain name SV40 T-antigen JAX strain #002233). Segments of intrahepatic bile ducts were microdissected from livers perfused via the portal vein with molten agarose containing toluidine blue to mark the veins. The liver parenchyma was stripped until the biliary tree was identified and the bile duct units were seeded onto rat type I collagen coated plates. Cells were cultured under non-permissive conditions in the following medium: DMEM/F12 with 5% fetal bovine serum, 10 μL/mL insulin-transferrin selenium, 3.4 μg/mL triiodothyronine, 50,000 U penicillin/streptomycin under humidified conditions at 37° C. in 5% CO2. After one week, the cells were cultured under permissive conditions in the presence of 10 U of interferon-γ at 33° C. in 5% CO2. When confluent, cells were passaged by digesting the collagen slab below the cells (60 min; 37° C.; DMEM/F12 with 2 mg/mL dispase and 1 mg/mL collagenase type 11), then washed twice in PBS and plated onto collagen coated support systems. Clonal cell lines were generated by single cell isolation. Cells were differentiated for 10 days at 37° C. without interferon-γ for experimental use.
compound,measurement,setting,value
CCOc1ccc2c(-c3cccc(F)c3)nn(CC(=O)N(C)c3ccc4nc(C)oc4c3)c(=O)c2c1 [FDL 169],cyst growth in 3D culture,"Pkhd1del4/del4 cholangiocytes, time not stated",reduces growth
same,cyst growth / cyst area,monitored for 1 week,reduced cyst growth in the presence of forskolin
same,cyst growth / cyst area,monitored for 48 hrs,reduced cyst growth in the presence of forskolin
